Measured values: PMC5923425, “Structural analysis of human ARS2 as a platform for co-transcriptional RNA sorting” (Nature Communications, 2018)
Each block holds one molecule with its values, some of them ahead of it.

Columns and labels:
[1] = molecular target: T1, NCBP3 (full-length, residues 1–620) (Homo sapiens, UniProt Q53F19); test: isothermal titration calorimetry; format: binding
T1 construct: full-length residues 1-620, pFASTBac HTb, expressed in High Five insect cells, N-terminal His6 tag cleaved with TEV
T1 sequence (Q53F19 1-620): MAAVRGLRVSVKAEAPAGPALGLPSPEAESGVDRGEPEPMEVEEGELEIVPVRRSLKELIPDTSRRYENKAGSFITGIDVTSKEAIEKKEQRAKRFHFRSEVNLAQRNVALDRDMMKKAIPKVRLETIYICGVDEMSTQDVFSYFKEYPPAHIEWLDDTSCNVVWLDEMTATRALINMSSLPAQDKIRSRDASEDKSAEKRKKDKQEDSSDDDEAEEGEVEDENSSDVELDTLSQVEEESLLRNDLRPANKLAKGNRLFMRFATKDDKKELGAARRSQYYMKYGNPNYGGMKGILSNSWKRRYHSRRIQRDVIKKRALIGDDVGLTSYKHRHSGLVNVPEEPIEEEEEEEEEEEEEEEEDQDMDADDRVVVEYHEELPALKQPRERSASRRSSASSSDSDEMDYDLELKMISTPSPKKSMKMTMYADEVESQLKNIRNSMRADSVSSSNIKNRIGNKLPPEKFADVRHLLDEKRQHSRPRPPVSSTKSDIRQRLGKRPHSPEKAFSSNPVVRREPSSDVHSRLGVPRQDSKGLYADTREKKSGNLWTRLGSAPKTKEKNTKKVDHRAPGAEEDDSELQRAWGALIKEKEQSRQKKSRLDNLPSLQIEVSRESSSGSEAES
Source text: isothermal titration calorimetry on NCBP3 (full-length, residues 1–620)

NCBP3 1–282 = molecular target: T2, NCBP3 1–282 (Homo sapiens, UniProt Q53F19); test: isothermal titration calorimetry; format: binding
T2 construct: N-terminal region with putative RRM domain, residues 1-282, pETM11, E. coli Rosetta 2, His6 tag cleaved with TEV
T2 sequence (Q53F19 1-282): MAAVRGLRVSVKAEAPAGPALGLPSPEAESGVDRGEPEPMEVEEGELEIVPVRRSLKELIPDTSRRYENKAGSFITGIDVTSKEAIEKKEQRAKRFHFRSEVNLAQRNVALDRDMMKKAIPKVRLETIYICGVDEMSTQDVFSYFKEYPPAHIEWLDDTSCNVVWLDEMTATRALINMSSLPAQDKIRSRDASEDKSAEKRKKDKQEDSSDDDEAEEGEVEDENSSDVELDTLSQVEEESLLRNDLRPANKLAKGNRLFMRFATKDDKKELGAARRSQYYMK
Source text: isothermal titration calorimetry on NCBP3 1–282

CBP20 = molecular target: T3, CBP20 (Homo sapiens, UniProt P52298); test: isothermal titration calorimetry; format: binding; conditions: 250 mM NaCl, 20 mM HEPES, 2 mM TCEP, pH 7.8, 25 °C; CBP20 without CBP80
T3 construct: gene NCBP2; CBP20 alone, recombinant, purified as described previously
T3 sequence (P52298 2-156): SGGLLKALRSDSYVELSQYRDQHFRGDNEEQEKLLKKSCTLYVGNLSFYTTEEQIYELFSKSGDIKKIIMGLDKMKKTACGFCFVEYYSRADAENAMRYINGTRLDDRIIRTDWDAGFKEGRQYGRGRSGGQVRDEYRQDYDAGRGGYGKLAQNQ
Source text: isothermal titration calorimetry on CBP20

CBP20/2xCBP80 (CBC) = molecular target: T4, CBP20/2xCBP80 (CBC) (Homo sapiens, UniProt P52298); test: isothermal titration calorimetry; format: binding; conditions: 250 mM NaCl, 20 mM HEPES, 2 mM TCEP, pH 7.8, 25 °C; CBP80 present (2x)
T4 construct: gene NCBP2; CBP20-CBP80 heterodimer, CBP80 added 2x (apparently molar excess)
T4 sequence (P52298 2-156): T3 sequence (P52298 2-156)
T4 sequence (Q09161 20-790 partner limits assumed): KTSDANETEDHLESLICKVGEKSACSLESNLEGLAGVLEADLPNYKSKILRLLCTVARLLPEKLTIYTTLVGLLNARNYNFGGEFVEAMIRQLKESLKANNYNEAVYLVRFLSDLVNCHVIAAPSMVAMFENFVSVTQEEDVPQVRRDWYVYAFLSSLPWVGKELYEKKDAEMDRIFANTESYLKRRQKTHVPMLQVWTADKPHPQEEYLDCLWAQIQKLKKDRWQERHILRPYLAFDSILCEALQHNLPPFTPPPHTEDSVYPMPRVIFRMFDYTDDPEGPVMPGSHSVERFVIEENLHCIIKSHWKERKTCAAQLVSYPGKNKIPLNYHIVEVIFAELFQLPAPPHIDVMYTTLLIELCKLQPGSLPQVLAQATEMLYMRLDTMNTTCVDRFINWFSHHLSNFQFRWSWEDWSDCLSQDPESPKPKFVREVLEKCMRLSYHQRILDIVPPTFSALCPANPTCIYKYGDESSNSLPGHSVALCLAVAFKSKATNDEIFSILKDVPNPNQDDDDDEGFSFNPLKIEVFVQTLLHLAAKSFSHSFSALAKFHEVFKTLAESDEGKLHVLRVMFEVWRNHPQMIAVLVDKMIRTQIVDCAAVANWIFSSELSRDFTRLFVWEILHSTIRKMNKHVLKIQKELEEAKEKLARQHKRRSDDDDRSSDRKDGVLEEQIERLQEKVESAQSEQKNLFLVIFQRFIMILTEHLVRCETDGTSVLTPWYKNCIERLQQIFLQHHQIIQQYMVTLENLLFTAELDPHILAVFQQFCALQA
Source text: isothermal titration calorimetry on CBP20/2xCBP80 (CBC)

NCBP3/2xCBP80 = molecular target: T5, NCBP3/2xCBP80 (Homo sapiens, UniProt Q53F19); test: isothermal titration calorimetry; format: binding
T5 construct: full-length NCBP3 (insect cells, tag cleaved) with CBP80 added (2x, apparently molar excess)
T5 sequence (Q53F19 1-620): T1 sequence (Q53F19 1-620)
T5 sequence (Q09161 20-790 partner limits assumed): T4 sequence (Q09161 20-790 partner limits assumed)
Source text: isothermal titration calorimetry on NCBP3/2xCBP80

ARS2^147–871 = molecular target: T6, ARS2^147–871 (human, UniProt Q9BXP5-4 147-871); test: pull-down; GST–FLASH 903–943 (or GST as control) immobilised on glutathione sepharose, incubated with purified ARS2 constructs 30 min at 10 °C; flow-through, wash and elution on Coomassie-stained SDS-PAGE; conditions: both partners purified
T6 construct: human ARS2 (SRRT) isoform-e, 871 residues, residues 147-871, cloned into pETM11; also called hARS2; SRRT; source: E. coli Rosetta 2, purified (Ni-Sepharose, TEV cleavage, HiTrap Q, heparin if necessary, SEC); not shown: His6, N-terminal, cleaved
T6 sequence (looked up): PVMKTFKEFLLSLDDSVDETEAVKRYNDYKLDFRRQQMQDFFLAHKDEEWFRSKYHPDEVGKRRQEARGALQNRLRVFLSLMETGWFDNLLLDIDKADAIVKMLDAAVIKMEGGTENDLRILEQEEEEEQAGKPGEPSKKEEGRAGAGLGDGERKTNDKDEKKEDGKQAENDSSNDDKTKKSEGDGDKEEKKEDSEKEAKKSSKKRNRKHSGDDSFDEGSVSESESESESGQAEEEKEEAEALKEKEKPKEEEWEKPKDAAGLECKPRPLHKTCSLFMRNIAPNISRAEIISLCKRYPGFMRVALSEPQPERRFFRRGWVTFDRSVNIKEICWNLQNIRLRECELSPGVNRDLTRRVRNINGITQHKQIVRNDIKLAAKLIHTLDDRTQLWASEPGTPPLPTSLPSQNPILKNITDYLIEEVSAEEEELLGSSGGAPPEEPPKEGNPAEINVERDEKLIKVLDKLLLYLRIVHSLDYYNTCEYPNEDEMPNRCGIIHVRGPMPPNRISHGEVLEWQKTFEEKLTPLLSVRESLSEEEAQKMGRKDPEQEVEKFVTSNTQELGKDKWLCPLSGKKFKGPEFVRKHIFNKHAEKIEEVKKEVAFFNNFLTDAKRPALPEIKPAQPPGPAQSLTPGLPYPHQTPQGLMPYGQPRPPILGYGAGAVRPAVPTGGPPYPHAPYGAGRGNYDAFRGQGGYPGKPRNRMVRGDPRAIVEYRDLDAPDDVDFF

- Kd [1]: 4.6 ± 1 µM
- Kd (NCBP3 1–282): 8.3 ± 3 µM
- Kd (CBP20): 84 ± 4.2 µM
- Kd (CBP20/2xCBP80 (CBC)): 0.37 ± 0.04 µM
- Kd (NCBP3/2xCBP80): 7.9 ± 0.9 µM
Molecule: C[n+]1cn([C@@H]2O[C@H](COP(=O)(O)OP(=O)(O)OP(=O)(O)O)[C@@H](O)[C@H]2O)c2nc(N)[nH]c(=O)c21 [m^7GTP]

- binding result (ARS2^147–871): binds
B1: GST–FLASH^903–943 (domain or fragment, UniProt Q9UKL3 903-943, looked up)
chain: SDLNKENQKPIYKSDKCTEADTCKNSPLDELEEGEIRSDSE
notes: FLASH (FLICE-associated huge protein), residues 903-943, holds FARB; cloned into the GST-vector pETM30; source: E. coli, expressed and purified; immobilised on glutathione sepharose
